Source: patent US20050202522A1, “Method of screening for antimicrobial agents” (NATIONAL INSTITUTE OF ADVANCED INDUSTRIAL SCIENCE AND …, priority 2003, published 2005)

How the values were obtained:
FFRP (pot1216151) = assay: Changes in crystal structure (depolarization) of FFRP crystals soaked in amino acid solutions; assay type: binding, Pyrococcus sp. OT3; conditions: crystals soaked in solution of one amino acid, 10 mM
Method: It has been known that the regularity inside a crystal might be affected, if the structure of the protein changes upon interaction with a ligand which is incorporated from outside the crystal, thereby depolarizing the crystal. Crystals of the FFRP (pot1216151) were soaked into solutions, each containing one of twenty amino acids at the same concentration 10 mM. […] With the other amino acids, no change was observed.

E. coli Lrp = E. coli Lrp (Escherichia coli, UniProt P0ACJ0); conditions: Marasco et al., 1994; cited from earlier work
FFRP pot1216151 = assay: Gel filtration analysis of changes in assemblies of the FFRP induced by amino acids and metabolic intermediates; assay type: binding, Pyrococcus sp. OT3; conditions: for gel filtration peak that increased: FFRP monomer approximately 100 μM, at least 30 minutes at room temperature, UV 220 nm; for concluded effect on assembling of the protein: gel filtration
Method: Changes in assemblies of the FFRP pot1216151 induced by interaction with amino acids and metabolic intermediates were analyzed in solution using gel filtration.
Gel filtration was carried out at a flow rate 1 ml/min, using a matrix (Protein Pak 125, 7.8×300 mm, Waters) and a 50 mM Tris-HCl buffer (pH 7.0) containing 300 mM sodium chloride. Flow of the protein was monitored by measuring the UV absorbance at 220 nm (LC Module I plus system, Waters). The FFRP pot1216151 purified by method 2, i.e., the rigorous method, was dissolved in 50 mM Tris-HCl buffer (pH 7.0) containing 200 mM sodium chloride, and kept at −80° C. until it was diluted by 10-fold with a 50 mM Tris-HCl buffer (pH 7.0) containing 300 mM sodium chloride, and mixed with each potential ligand for at least 30 minutes at room temperature (about 25° C.). In the mixture, the monomer concentration of the FFRP was approximately 100 μM.

E. coli Lrp, sequence (P0ACJ0 2-164): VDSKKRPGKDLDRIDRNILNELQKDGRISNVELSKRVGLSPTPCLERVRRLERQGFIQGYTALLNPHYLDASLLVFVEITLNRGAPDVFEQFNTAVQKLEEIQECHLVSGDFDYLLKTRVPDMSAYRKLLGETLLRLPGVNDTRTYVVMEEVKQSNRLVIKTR

CC(C)C[C@H](N)C(=O)O [leucine]
change of the FFRP crystal (depolarization) on soaking (FFRP (pot1216151)): the crystals depolarized after several hours | effect of leucine on the FFRP assembly (E. coli Lrp): disassembling these FFRPs | gel filtration peak that increased (FFRP pot1216151; amino acid 1 mM): the fourth peak increased | concluded effect on assembling of the protein (FFRP pot1216151; amino acid 1 mM): accelerate disassembling of the protein

C[C@@H](O)[C@H](N)C(=O)O [threonine]
gel filtration peak that increased (FFRP pot1216151; amino acid 1 mM): the fourth peak increased | concluded effect on assembling of the protein (FFRP pot1216151; amino acid 1 mM): accelerate disassembling of the protein

C[C@H](N)C(=O)O [alanine]
gel filtration peak that increased (FFRP pot1216151; amino acid 1 mM): the fourth peak increased | concluded effect on assembling of the protein (FFRP pot1216151; amino acid 1 mM): accelerate disassembling of the protein

CSCC[C@H](N)C(=O)O [methionine]
change of the FFRP crystal (depolarization) on soaking (FFRP (pot1216151)): the crystals depolarized after several hours | gel filtration peak that increased (FFRP pot1216151; amino acid 1 mM): the fourth peak increased | concluded effect on assembling of the protein (FFRP pot1216151; amino acid 1 mM): accelerate disassembling of the protein

CC[C@H](C)[C@H](N)C(=O)O [isoleucine]
change of the FFRP crystal (depolarization) on soaking (FFRP (pot1216151)): the crystals depolarized after several hours | gel filtration peak that increased (FFRP pot1216151; amino acid 1 mM): the second peak increased | concluded effect on assembling of the protein (FFRP pot1216151; amino acid 1 mM): accelerates assembling of the protein

O=C(O)CC(O)C(=O)O (stereo not drawn) [malic acid]
gel filtration peak that increased (FFRP pot1216151; metabolic intermediate 10 mM): the third peak increased | concluded effect on assembling of the protein (FFRP pot1216151; metabolic intermediate 10 mM): stabilizing intermediate assemblies

CC(C)[C@H](N)C(=O)O [valine]
change of the FFRP crystal (depolarization) on soaking (FFRP (pot1216151)): the crystals depolarized after several hours | gel filtration peak that increased (FFRP pot1216151; amino acid 1 mM): the third peak increased | concluded effect on assembling of the protein (FFRP pot1216151; amino acid 1 mM): stabilizing intermediate assemblies

N[C@@H](Cc1ccccc1)C(=O)O [phenylalanine]
gel filtration peak that increased (FFRP pot1216151; amino acid 1 mM): the fourth peak increased | concluded effect on assembling of the protein (FFRP pot1216151; amino acid 1 mM): accelerate disassembling of the protein

O=C(O)C(O)COP(=O)(O)O (stereo not drawn) [3-phosphoglyceric acid]
gel filtration peak that increased (FFRP pot1216151; metabolic intermediate 10 mM): no significant effect

O=C(O)CC(=O)C(=O)O [oxaloacetic acid]
gel filtration peak that increased (FFRP pot1216151; metabolic intermediate 10 mM): the third peak increased | concluded effect on assembling of the protein (FFRP pot1216151; metabolic intermediate 10 mM): stabilizing intermediate assemblies

N=C(N)NCCC[C@H](N)C(=O)O [arginine]
gel filtration peak that increased (FFRP pot1216151; amino acid 1 mM): the fourth peak increased | concluded effect on assembling of the protein (FFRP pot1216151; amino acid 1 mM): accelerate disassembling of the protein

CC(=O)C(=O)O [pyruvic acid]
gel filtration peak that increased (FFRP pot1216151; metabolic intermediate 10 mM): no significant effect
